Consider 17 compounds from patent US9120791B2, “Indolizine compounds, a process for their preparation and pharmaceutical compositions containing them” (LES LABORATOIRES SERVIER, priority 2012, dated 2015).

Structures can show the parent of a compound that is named as a salt.

For one test, the target named is Bcl-2 protein (Homo sapiens (Human), UniProt P10415). The experiment in a line: Inhibition of Bcl-2 by the fluorescence polarisation technique. In kind it is binding. As to conditions: fluorescence polarisation test; concentration that inhibits fluorescence polarisation by 50%; read-out: IC50 (nM) Bcl-2 FP. The procedure:
The fluorescence polarisation tests were carried out on microplates (384 wells). […] After incubation for 2 hours, the fluorescence polarisation is measured.
(In fluorescence polarisation assays a small probe gives low polarisation when free and higher when bound to something large.)

For test [1], the system named is RS4;11 leukaemia tumour line. The experiment in a line: In vitro cytotoxicity (Microculture Tetrazolium Assay, 48 hours). The format is cell-based. Particulars: Homo sapiens, RS4;11 cells, 48 hours exposure, MTT, concentration that inhibits cell viability by 50%, read-out: IC50 (nM) MTT RS4. The procedure: The cytotoxicity studies were carried out on the RS4;11 leukaemia tumour line.
The cells are distributed onto microplates and exposed to the test compounds for 48 hours.

Sequence of Bcl-2 protein (P10415 whole entry): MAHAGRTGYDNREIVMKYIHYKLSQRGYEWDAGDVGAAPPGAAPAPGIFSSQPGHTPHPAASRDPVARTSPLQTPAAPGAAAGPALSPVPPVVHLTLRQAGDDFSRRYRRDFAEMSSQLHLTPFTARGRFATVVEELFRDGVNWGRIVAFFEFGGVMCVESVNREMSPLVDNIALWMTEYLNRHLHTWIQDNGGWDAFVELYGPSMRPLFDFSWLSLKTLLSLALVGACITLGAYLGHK

The term IC50 denotes the concentration that inhibits the measured activity by half. On to `COc1ccc(N(C(=O)c2cc(-c3cc(Cl)ccc3C(=O)N3Cc4ccccc4C[C@H]3CN3CCOCC3)n3c2CCCC3)c2ccc(O)cc2)cc1C(F)(F)F` [Example 53, 3-{5-Chloro-2-[((3S)-3-(4-morpholinylmethyl)-3,4-dihydro-2(1H)-isoquinolinyl)carbonyl]phenyl}-N-(4-hydroxyphenyl)-N-[4-methoxy-3-(trifluoro-methyl)phenyl]-5,6,7,8-tetrahydro-1-indolizine carboxamide hydrochloride], for which the figures for the IC50 (at Bcl-2 protein; in test [1]) were 180 nM and 138 nM, respectively.
Regarding `CSc1ccc(N(C(=O)c2cc(-c3cc(Cl)ccc3C(=O)N3Cc4ccccc4C[C@H]3CN3CCOCC3)n3c2CCCC3)c2ccc(O)cc2)cc1C(F)(F)F` [Example 54, 3-{5-Chloro-2-[((3S)-3-(4-morpholinylmethyl)-3,4-dihydro-2(1H)-isoquinolinyl)carbonyl]phenyl}-N-(4-hydroxyphenyl)-N-[4-(methylsulphanyl)-3-(trifluoromethyl)phenyl]-5,6,7,8-tetrahydro-1-indolizine carboxamide hydrochloride], the IC50 at Bcl-2 protein amounted to 180 nM; in test [1], 106 nM.
Take `Cn1ccc2cc(N(C(=O)c3cc(-c4cc(Cl)ccc4C(=O)N4Cc5ccccc5C[C@H]4CN4CCOCC4)n4c3CCCC4)c3ccc(O)c(F)c3)ccc21` [Example 55, 3-{5-Chloro-2-[((3S)-3-(4-morpholinylmethyl)-3,4-dihydro-2(1H)-isoquinolinyl)carbonyl]phenyl}-N-(3-fluoro-4-hydroxyphenyl)-N-(1-methyl-1H-indol-5-yl)-5,6,7,8-tetrahydro-1-indolizine carboxamide hydrochloride]: the figures for the half-maximal inhibitory concentration (IC50) (at Bcl-2 protein; in test [1]) were 34 nM and 19.4 nM, respectively.
Regarding `CN1CCN(C[C@@H]2Cc3ccccc3CN2C(=O)c2cc3c(cc2-c2cc(C(=O)N(c4ccc(O)cc4)c4ccc5c(ccn5C)c4)c4ccccn24)OCO3)CC1` [Example 57, N-(4-Hydroxyphenyl)-N-(1-methyl-1H-indol-5-yl)-3-{6-[((3S)-3-[(4-methyl-1-piperazinyl)methyl]-3,4-dihydro-2(1H)-isoquinolinyl)carbonyl]-1,3-benzodioxol-5-yl}-1-indolizine carboxamide bis(hydrochloride)], the IC50 on Bcl-2 protein was 12 nM; in test [1], 8.62 nM.
Take `CCn1ccc2cc(N(C(=O)c3cc(-c4cc5c(cc4C(=O)N4Cc6ccccc6C[C@H]4CN4CCOCC4)OCO5)n4ccccc34)c3ccc(O)cc3)ccc21` [Example 60, N-(1-Ethyl-1H-indol-5-yl)-N-(4-hydroxyphenyl)-3-{6-[((3S)-3-(4-morpholinylmethyl)-3,4-dihydro-2(1H)-isoquinolinyl)carbonyl]-1,3-benzodioxol-5-yl}-1-indolizine carboxamide hydrochloride]: the IC50 at Bcl-2 protein is 19 nM; in test [1], 11.7 nM.
Turning to `CN1CCc2cc(N(C(=O)c3cc(-c4cc5c(cc4C(=O)N4Cc6ccccc6C[C@H]4CN4CCOCC4)OCO5)n4ccccc34)c3ccc(O)cc3)ccc21` [Example 61, N-(4-Hydroxyphenyl)-N-(1-methyl-2,3-dihydro-1H-indol-5-yl)-3-{6-[((3S)-3-(4-morpholinylmethyl)-3,4-dihydro-2(1H)-isoquinolinyl)carbonyl]-1,3-benzodioxol-5-yl}-1-indolizine carboxamide hydrochloride], the IC50 on Bcl-2 protein is 22 nM; in test [1] it was 14.5 nM.
Turning to `CC(C)n1ccc2cc(N(C(=O)c3cc(-c4cc5c(cc4C(=O)N4Cc6ccccc6C[C@H]4CN4CCOCC4)OCO5)n4ccccc34)c3ccc(O)cc3)ccc21` [Example 62, N-(4-Hydroxyphenyl)-N-(1-isopropyl-1H-indol-5-yl)-3-{6-[((3S)-3-(4-morpholinylmethyl)-3,4-dihydro-2(1H)-isoquinolinyl)carbonyl]-1,3-benzodioxol-5-yl}-1-indolizine carboxamide hydrochloride], the IC50 is 22 nM on Bcl-2 protein and 19.3 nM in test [1].
`CCN1CCc2cc(N(C(=O)c3cc(-c4cc5c(cc4C(=O)N4Cc6ccccc6C[C@H]4CN4CCOCC4)OCO5)n4ccccc34)c3ccc(O)cc3)ccc21` [Example 63, N-(1-Ethyl-2,3-dihydro-1H-indol-5-yl)-N-(4-hydroxyphenyl)-3-{6-[((3S)-3-(4-morpholinylmethyl)-3,4-dihydro-2(1H)-isoquinolinyl)carbonyl]-1,3-benzodioxol-5-yl}-1-indolizine carboxamide hydrochloride]: the IC50 on Bcl-2 protein was 21 nM; in test [1], 18.8 nM.
Take `CC(C)N1CCc2cc(N(C(=O)c3cc(-c4cc5c(cc4C(=O)N4Cc6ccccc6C[C@H]4CN4CCOCC4)OCO5)n4ccccc34)c3ccc(O)cc3)ccc21` [Example 64, N-(4-Hydroxyphenyl)-N-(1-isopropyl-2,3-dihydro-1H-indol-5-yl)-3-{6-[((3S)-3-(4-morpholinylmethyl)-3,4-dihydro-2(1H)-isoquinolinyl)carbonyl]-1,3-benzodioxol-5-yl}-1-indolizine carboxamide hydrochloride]: the IC50 is 31 nM on Bcl-2 protein and 23.3 nM in test [1].
As for `CN1CCN(C[C@@H]2Cc3ccccc3CN2C(=O)c2ccc(Cl)cc2-c2cc(C(=O)N(c3ccc(O)cc3)c3ccc4c(ccn4C)c3)c3ccccn23)CC1` [Example 65, 3-{5-Chloro-2-[((3S)-3-[(4-methyl-1-piperazinyl)methyl]-3,4-dihydro-2(1H)-isoquinolinyl)carbonyl]phenyl}-N-(4-hydroxyphenyl)-N-(1-methyl-1H-indol-5-yl)-1-indolizine carboxamide bis(hydrochloride)], the IC50 on Bcl-2 protein was 14 nM; in test [1], 9.19 nM.
As for `CN1CCCc2cc(N(C(=O)c3cc(-c4cc5c(cc4C(=O)N4Cc6ccccc6C[C@H]4CN4CCOCC4)OCCO5)n4ccccc34)c3ccc(O)cc3)ccc21` [Example 69, N-(4-Hydroxyphenyl)-N-(1-methyl-1,2,3,4-tetrahydro-6-quinolinyl)-3-{7-[((3S)-3-(4-morpholinylmethyl)-3,4-dihydro-2(1H)-isoquinolinyl)carbonyl]-2,3-dihydro-1,4-benzodioxin-6-yl}-1-indolizine carboxamide hydrochloride], the values for the IC50 (at Bcl-2 protein; in test [1]) were 26 nM and 16.7 nM, respectively.
`Cn1ccc2cc(N(C(=O)c3cc(-c4cc5c(cc4C(=O)N4Cc6ccccc6C[C@H]4CN4CCOCC4)OCCO5)n4ccccc34)c3ccc(O)cc3)ccc21` [Example 70, N-(4-Hydroxyphenyl)-N-(1-methyl-1H-indol-5-yl)-3-{7-[((3S)-3-(4-morpholinylmethyl)-3,4-dihydro-2(1H)-isoquinolinyl)carbonyl]-2,3-dihydro-1,4-benzodioxin-6-yl}-1-indolizine carboxamide hydrochloride]: the IC50 at Bcl-2 protein was 19 nM; in test [1] it was 14 nM.
In the case of `COc1ccc(C(=O)N2Cc3ccccc3C[C@H]2CN2CCOCC2)c(-c2cc(C(=O)N(c3ccc(O)cc3)c3ccc4c(ccn4C)c3)c3ccccn23)c1` [Example 71, N-(4-Hydroxyphenyl)-3-{5-methoxy-2-[((3S)-3-(4-morpholinylmethyl)-3,4-dihydro-2(1H)-isoquinolinyl)carbonyl]phenyl}-N-(1-methyl-1H-indol-5-yl)-1-indolizine carboxamide hydrochloride], the IC50 at Bcl-2 protein turned out to be 21 nM; in test [1] it was 24.4 nM.
For `Cn1ccc2cc(N(C(=O)c3cc(-c4cc5c(cc4C(=O)N4Cc6ccccc6C[C@H]4CN4CCOCC4)OCO5)n4c3CNCC4)c3ccc(O)cc3)ccc21` [Example 74, N-(4-Hydroxyphenyl)-N-(1-methyl-1H-indol-5-yl)-6-{6-[((3S)-3-(4-morpholinylmethyl)-3,4-dihydro-2(1H)-isoquinolinyl)carbonyl]-1,3-benzodioxol-5-yl}-1,2,3,4-tetrahydropyrrolo[1,2-a]pyrazine-8-carboxamide bis(hydrochloride)], the values for the IC50 (on Bcl-2 protein; in test [1]) were 24 nM and 241 nM, respectively.
On to `CN1CCN(C[C@@H]2Cc3ccccc3CN2C(=O)c2cc3c(cc2-c2cc(C(=O)N(c4ccc(O)cc4)c4ccc5c(ccn5C)c4)c4n2CCC4)OCO3)CC1` [Example 76, N-(4-Hydroxyphenyl)-N-(1-methyl-1H-indol-5-yl)-5-{6-[((3S)-3-[(4-methyl-1-piperazinyl)methyl]-3,4-dihydro-2(1H)-isoquinolinyl)carbonyl]-1,3-benzodioxol-5-yl}-2,3-dihydro-1H-pyrrolizine-7-carboxamide bis(hydrochloride)], for which the IC50 came to 17 nM at Bcl-2 protein and 49 nM in test [1].
Turning to `CN1CCN(C[C@@H]2Cc3ccccc3CN2C(=O)c2ccc(Cl)cc2-c2cc(C(=O)N(c3ccc(O)cc3)c3ccc4c(ccn4C)c3)c3n2CCC3)CC1` [Example 77, 5-{5-Chloro-2-[((3S)-3-[(4-methyl-1-piperazinyl)methyl]-3,4-dihydro-2(1H)-isoquinolinyl)carbonyl]phenyl}-N-(4-hydroxyphenyl)-N-(1-methyl-1H-indol-5-yl)-2,3-dihydro-1H-pyrrolizine-7-carboxamide bis(hydrochloride)], the IC50 on Bcl-2 protein stood at 23 nM; in test [1], 70.4 nM.
On to `O=C(c1cc(-c2cc(Cl)ccc2C(=O)N2Cc3ccccc3C[C@H]2CN2CCOCC2)n2c1COCC2)N(c1ccc(O)cc1)c1ccc2c(c1)CCN2` [Example 79, 6-{5-Chloro-2-[((3S)-3-(4-morpholinylmethyl)-3,4-dihydro-2(1H)-isoquinolinyl)carbonyl]phenyl}-N-(2,3-dihydro-1H-indol-5-yl)-N-(4-hydroxyphenyl)-3,4-dihydro-1H-pyrrolo[2,1-c][1,4]oxazine-8-carboxamide bis(hydrochloride)], for which the IC50 on Bcl-2 protein came out at 31 nM; in test [1], 67.5 nM.
